Values of other authors as cited in article PMC4780677 (Annual reports in medicinal chemistry, 2012).

Tested on: mGlu5 receptor
Details: cell lines; mGlu5 receptor ago-PAM vs pure PAM

| Compound | intrinsic agonist activity |
| --- | --- |
| O=C(NC1CCC1)c1ccc(C#Cc2cccc(F)c2)nc1 [VU0360172] | maximal intrinsic agonist activity |
| O=C(c1ccc(C#Cc2cccc(F)c2)nc1)N1CCC(O)CC1 [VU0361747] | devoid of intrinsic agonist activity |
